# Read-outs that look alike come from different tables or passages of the source.
# Key:
# [1] = molecular target: T1, PKCε (Homo sapiens, UniProt Q02156); assay: FRET based LANCE Ultra kinase assay; format: biochemical
# T1 sequence (Q02156 1-737): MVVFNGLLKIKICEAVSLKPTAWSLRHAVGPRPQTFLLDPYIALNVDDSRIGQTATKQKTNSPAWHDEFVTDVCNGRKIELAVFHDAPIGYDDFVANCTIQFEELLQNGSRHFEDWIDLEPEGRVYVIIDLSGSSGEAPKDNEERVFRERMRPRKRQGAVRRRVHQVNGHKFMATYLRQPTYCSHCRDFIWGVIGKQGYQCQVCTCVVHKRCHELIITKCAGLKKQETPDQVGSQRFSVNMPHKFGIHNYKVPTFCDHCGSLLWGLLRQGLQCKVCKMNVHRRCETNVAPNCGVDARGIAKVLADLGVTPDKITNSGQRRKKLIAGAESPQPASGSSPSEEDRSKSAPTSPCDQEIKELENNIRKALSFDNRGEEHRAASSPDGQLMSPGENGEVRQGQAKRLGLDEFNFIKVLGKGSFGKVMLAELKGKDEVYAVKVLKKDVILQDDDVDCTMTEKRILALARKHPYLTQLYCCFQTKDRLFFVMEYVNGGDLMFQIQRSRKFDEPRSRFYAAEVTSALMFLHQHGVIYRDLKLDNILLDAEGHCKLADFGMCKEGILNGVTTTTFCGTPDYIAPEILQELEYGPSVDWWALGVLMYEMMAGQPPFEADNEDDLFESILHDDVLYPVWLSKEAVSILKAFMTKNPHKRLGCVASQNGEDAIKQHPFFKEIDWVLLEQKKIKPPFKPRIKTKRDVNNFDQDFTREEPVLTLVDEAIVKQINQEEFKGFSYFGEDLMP
# Method: Certain compounds of this invention were tested in the captioned assay.
# [2] = molecular target: T2, PKCγ (Homo sapiens, UniProt P05129); assay: Inhibition of conventional PKCγ (Example 4); format: biochemical; conditions: for inhibition of conventional PKCγ: at 10 µM, result in words
# T2 construct: purchased Invitrogen (Carlsbad, CA, USA)
# Method: (§1) For example, to measure inhibition of conventional PKCγ, novel PKCδ, and atypical PKCζ, the same kinase assay disclosed above for PKCε can be used with recombinant human PKCγ, PKCδ, or PKCζ purchased from Invitrogen (Carlsbad, CA, USA) in place of PKCs, with 0.4 mM CaCl2 assay buffer for PKCγ.
# (§2) The specificity of the compounds disclosed herein for inhibition of PKCε can be determined by examining their ability to inhibit ROCK1 and selected members of each PKC subfamily according to the protocols of the counter-screening assay for selectivity disclosed herein. This assay can be performed according to the biochemical assay for PKCε described above with some modifications. Rather than varying the concentrations of the inhibitors, only 10µM of each compound can be used.
# [3] = molecular target: T3, PKCζ (Homo sapiens, UniProt Q05513); assay: Inhibition of atypical PKCζ (Example 4); format: biochemical; conditions: for activity against atypical PKCζ: at 10 µM, result in words
# T3 construct: purchased Invitrogen (Carlsbad, CA, USA)
# T3 sequence (Q05513 1-592): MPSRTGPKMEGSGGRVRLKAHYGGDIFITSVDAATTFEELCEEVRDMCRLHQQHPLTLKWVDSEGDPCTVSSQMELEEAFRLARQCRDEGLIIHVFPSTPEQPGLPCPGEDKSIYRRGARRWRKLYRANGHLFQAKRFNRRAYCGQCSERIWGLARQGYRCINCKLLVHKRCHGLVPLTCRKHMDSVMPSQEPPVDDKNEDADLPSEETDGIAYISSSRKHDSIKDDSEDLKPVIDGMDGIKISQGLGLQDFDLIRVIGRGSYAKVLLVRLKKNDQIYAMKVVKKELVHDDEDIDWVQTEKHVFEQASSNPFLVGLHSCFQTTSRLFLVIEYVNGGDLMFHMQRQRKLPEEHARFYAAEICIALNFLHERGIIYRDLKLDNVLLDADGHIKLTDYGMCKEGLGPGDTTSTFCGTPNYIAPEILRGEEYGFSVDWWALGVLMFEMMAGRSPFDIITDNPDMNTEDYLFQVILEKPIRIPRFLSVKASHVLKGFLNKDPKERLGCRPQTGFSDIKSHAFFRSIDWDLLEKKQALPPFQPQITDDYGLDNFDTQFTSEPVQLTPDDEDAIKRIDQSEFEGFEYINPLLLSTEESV
# Method: as §1, §2
# [4] = molecular target: T1, PKCε; assay: Primary PKCε phosphotransferase assay; format: biochemical; parameters: FLAG; made in house; host or cells: COS-7 cells; conditions: log of molar IC50
# Method: The assay mixture can contain 2 ng FLAG-tagged human PKCε expressed and purified from COS-7 cells in 25 µl kinase buffer containing 20 mM Tris-HCI, pH 7.4, 0.25 mM EGTA, 0.1 mg/ml BSA, 0.72% TritonX-100, 10 mM MgCl2, 0.48 µg/µl L-α-phosphatidylserine (PS) and 0.107 µg/µl sn-1,2-dioleoylglecerol (DG) (Avanti Polar Lipids, Alabaster, AL, USA), 2 µM K(Biotin)-[…], 2.5 µM ATP and 0.05 µCi [^32γ-P]ATP. After incubation at 27 °C for 90 min, the reaction is terminated by adding 12.5 µl of 7.5 M of guanidine hydrochloride. Eight microliters of reaction mixture is spotted onto a pre-cut streptavidin-coated SAM Biotin Capture membrane. […] The membrane is then air dried at room temperature for 60 min and radioactivity remaining on the membrane can be measured by liquid scintillation counting. Specific PKCε activity can then be calculated as the difference between cpms detected in the presence and absence of lipids (PS and DG). Maximal PKCε activity (positive control) can be detected in reactions lacking an inhibitor. […]
# IC50 values can be calculated from normalized dose-response curves by nonlinear regression analysis.
# The ability of the compounds disclosed herein to inhibit PKCε can be assessed using the primary PKCε assay described above using the biotinylated substrate […]. […]
# [5] = molecular target: T1, PKCε; assay: Cell-based assay for PKCε modulation of GABAA receptors (γ2 S327 phosphorylation, ELISA format); conditions: HEK293 cell line expressing α1β2γ2 GABAA receptors and over-expressing PKCε; anti-γ2S(P)327 ELISA
# Method: PKCε inhibition can also be measured by assaying benzodiazepine modulation of GABAA receptors in intact cells. PKCε decreases benzodiazepine potency at GABAA receptors by phosphorylating S327 of GABAA y2 subunits. The GABAA cell-based assay uses a HEK293 cell line that expresses α1β2γ2 GABAA receptors and over-expresses PKCε. […] This 6-fold difference in benzodiazepine potency can be detected without addition of a PKC activator. The assay is performed using an anti-phospho antibody that recognizes γ2S(P)327 in an ELISA format to generate 8 point dose-response curves for each compound. Background values, detected from wells in which no primary antibody was added, are subtracted from sample values. Maximal phosphorylation (positive control) is detected in reactions containing phorbol ester and lacking an inhibitor.
# [6] = molecular target: T1, PKCε; assay: Inhibition of PKCε (Example 4); format: biochemical
# [7] = molecular target: T4, PKCδ (Homo sapiens, UniProt Q05655); assay: Inhibition of novel PKCδ (Example 4); format: biochemical
# T4 construct: purchased Invitrogen (Carlsbad, CA, USA)
# Method: as §1, §2
# [8] = molecular target: T5, PKCθ (Homo sapiens, UniProt Q04759); assay: Inhibition of novel PKCθ (Example 4); format: biochemical
# T5 construct: purchased Invitrogen P2996
# Description: Inhibition of PKC theta activity can be measured using the same primary phosphotransferase assay for PKCε except one substitutes recombinant human PKC theta purchased from Invitrogen for PKCε. PKC theta can also be assayed with a fluorescence polarization (FP) assay using the commercially available Protein Kinase C Assay Kit, Red, from Invitrogen (Product ID No P2941), essentially in accordance with the protocol supplied by the manufacturer. The substrate used is […] (Mw 1561), which can be obtained from Invitrogen (Product ID No P2760). The isozyme PKC theta can be obtained from Invitrogen (Product ID No P2996).
# as §2
# [9] = test system: C57BL/6 mice; assay: Ethanol-induced loss of righting reflex (LORR) in vivo; conditions: 10 mg/kg i.p.
# Method: Compound 1 was administered (10 mg/kg) i.p. to C57BL/6 mice, which were administered 20 min later 3.6 g/kg ethanol i.p. to induce loss of righting. […] These findings indicate that this class of compounds can cross the blood-brain barrier and act as a PKCε inhibitor, and prolong the duration of the LORR in the treated animals. Such increased signs of ethanol intoxication are contemplated to be aversive and to limit ethanol self-administration.
# [10] = log of molar IC50, read-out: Log IC50 (converted)
# T5 sequence (Q04759 whole entry): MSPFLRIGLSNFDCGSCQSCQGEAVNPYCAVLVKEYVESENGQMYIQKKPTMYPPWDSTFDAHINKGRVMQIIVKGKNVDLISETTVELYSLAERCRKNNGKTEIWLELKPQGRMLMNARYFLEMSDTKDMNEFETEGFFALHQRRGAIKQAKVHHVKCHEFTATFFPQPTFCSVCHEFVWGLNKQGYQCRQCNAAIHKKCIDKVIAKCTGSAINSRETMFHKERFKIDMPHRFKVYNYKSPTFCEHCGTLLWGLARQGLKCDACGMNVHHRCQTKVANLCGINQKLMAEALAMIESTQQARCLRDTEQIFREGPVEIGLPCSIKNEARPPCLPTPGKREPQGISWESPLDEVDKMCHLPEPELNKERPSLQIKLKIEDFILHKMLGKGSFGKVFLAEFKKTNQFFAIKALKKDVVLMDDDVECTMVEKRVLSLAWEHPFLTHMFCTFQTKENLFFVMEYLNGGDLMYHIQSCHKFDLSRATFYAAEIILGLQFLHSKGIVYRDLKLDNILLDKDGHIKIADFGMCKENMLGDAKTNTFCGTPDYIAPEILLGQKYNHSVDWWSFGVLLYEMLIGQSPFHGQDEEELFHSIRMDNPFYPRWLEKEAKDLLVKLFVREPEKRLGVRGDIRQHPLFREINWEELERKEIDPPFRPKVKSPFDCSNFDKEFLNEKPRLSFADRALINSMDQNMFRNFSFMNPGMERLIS
# T4 sequence (Q05655 whole entry): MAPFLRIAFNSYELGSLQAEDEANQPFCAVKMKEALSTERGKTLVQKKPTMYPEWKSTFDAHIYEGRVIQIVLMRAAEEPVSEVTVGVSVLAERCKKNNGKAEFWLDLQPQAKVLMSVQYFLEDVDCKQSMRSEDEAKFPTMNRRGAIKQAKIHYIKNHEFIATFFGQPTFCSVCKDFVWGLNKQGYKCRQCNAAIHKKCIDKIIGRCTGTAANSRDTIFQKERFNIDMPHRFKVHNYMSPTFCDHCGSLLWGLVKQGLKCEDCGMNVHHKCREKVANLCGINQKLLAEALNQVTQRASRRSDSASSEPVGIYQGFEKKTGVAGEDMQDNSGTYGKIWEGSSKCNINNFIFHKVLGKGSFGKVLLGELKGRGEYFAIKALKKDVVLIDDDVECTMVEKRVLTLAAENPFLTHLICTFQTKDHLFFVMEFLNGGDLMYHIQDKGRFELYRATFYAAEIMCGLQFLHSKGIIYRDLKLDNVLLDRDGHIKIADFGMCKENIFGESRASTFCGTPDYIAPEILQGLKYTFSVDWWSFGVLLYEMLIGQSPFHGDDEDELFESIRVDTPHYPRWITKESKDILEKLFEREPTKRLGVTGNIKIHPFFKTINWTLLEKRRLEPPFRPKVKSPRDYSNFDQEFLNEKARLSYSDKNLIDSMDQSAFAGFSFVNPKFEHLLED
compound,measurement,setting,value
NC(C(=O)NC1COc2ccccc21)[C@H]1CC[C@H](C(=O)Nc2ccncc2)CC1 (stereo partly drawn) [Compound 10],Log IC50,[1]; log of molar IC50,-5.695
same,IC50,[1]; read-out: IC50,2020 nM
CC(C)(C(=O)NCC(N)[C@H]1CC[C@H](C(=O)Nc2ccncc2)CC1)c1ccc(Cl)cc1 (stereo partly drawn) [Compound 9],Log IC50,[1]; log of molar IC50,-7.398
same,IC50,[1]; read-out: IC50,40 nM
same,inhibition of conventional PKCγ,[2],inhibited
same,activity against atypical PKCζ,[3],almost no activity
NC(CNC(=O)C1(c2ccc(F)c(F)c2)CC1)[C@H]1CC[C@H](C(=O)Nc2ccncc2)CC1 (stereo partly drawn) [Compound 6],Log IC50,[1]; log of molar IC50,-7.282
NC(CNC(=O)C1(c2ccc(F)cc2)CC1)[C@H]1CC[C@H](C(=O)Nc2ccncc2)CC1 (stereo partly drawn) [Compound 3],Log IC50,[1]; log of molar IC50,-6.835
same,IC50,[1]; read-out: IC50,146 nM
NC(C(=O)N[C@@H]1CCCc2ccccc21)[C@H]1CC[C@H](C(=O)Nc2ccncc2)CC1 (stereo partly drawn) [Compound 11],IC50,[1]; [10],3090 nM
same,IC50,[1]; read-out: IC50,3090 nM
NC(C(=O)NCC1(c2ccc(Cl)cc2)CC1)[C@H]1CC[C@H](C(=O)Nc2ccncc2)CC1 (stereo partly drawn) [Compound 2],IC50,[1]; [10],3240 nM
same,IC50,[4],1690 nM
CC(C)(C(=O)NCC(N)[C@H]1CC[C@H](C(=O)Nc2ccncc2)CC1)c1cccs1 (stereo partly drawn) [Compound 7],Log IC50,[1]; log of molar IC50,-6.553
same,IC50,[1]; read-out: IC50,280 nM
"NC(CNC(=O)C1(c2ccc(Cl)cc2)CC1)[C@H]1CC[C@H](C(=O)Nc2ccncc2)CC1 (relative stereo) [Compound 1, trans-4-[1-Amino-2-[[[1-(4-chlorophenyl)cyclopropyl]carbonyl]amino]ethyl]-N-4-pyridinyl-cyclohexylcarboxamide]",IC50,[5],8.9 nM
same,IC50,[1]; read-out: IC50,56.6 nM
same,Ki,"[6]; PKCε, read-out: Ki",< 20 nM
same,Ki,"[6]; n=3, read-out: PKCε Ki",17 nM
same,IC50,[6]; read-out: PKCε Log IC50 (converted),55 nM
same,inhibition at 10 µM,"[2]; 10 µM inhibitor, n=3, read-out: Percent inhibition of PKC activity, Conventional PKCγ",16.7 ± 3.8%
same,inhibition of conventional PKCγ,[2],inhibited
same,inhibition at 10 µM,"[7]; 10 µM inhibitor, n=3, read-out: Percent inhibition of PKC activity, Novel PKCδ",96.3 ± 0.7%
same,Ki,[7]; n=3,173 nM
same,IC50,[7]; read-out: PKCδ Log IC50 (converted),708 nM
same,inhibition at 10 µM,"[8]; 10 µM inhibitor, n=3, read-out: Percent inhibition of PKC activity, Novel PKCθ",96.9 ± 1.1%
same,Ki,[8]; n=3,91.7 nM
same,IC50,[8]; read-out: PKCθ Log IC50 (converted),372 nM
same,inhibition at 10 µM,"[3]; 10 µM inhibitor, n=3, read-out: Percent inhibition of PKC activity, Atypical PKCζ",55.9 ± 3.8%
same,increase of LORR duration,"[9]; 20 min before 3.6 g/kg ethanol i.p., versus vehicle-treated mice, p = 0.036",45%
same,LORR duration,"[9]; drug-treated mice (n=10), 3.6 g/kg ethanol i.p., vehicle 31.4 ± 4.9 (n=8)",45.7 ± 4.0
same,IC50,[4],131 nM
NC(CNC(=O)C1CCc2cc(Cl)ccc21)[C@H]1CC[C@H](C(=O)Nc2ccncc2)CC1 (stereo partly drawn) [Compound 8],Log IC50,[1]; log of molar IC50,-6.445
same,IC50,[1]; read-out: IC50,359 nM
NC(CNC(=O)C1(c2ccc(F)cc2)CCCC1)[C@H]1CC[C@H](C(=O)Nc2ccncc2)CC1 (stereo partly drawn) [Compound 5],Log IC50,[1]; log of molar IC50,-7.370
same,PKCε Log IC50(M),"[6]; log IC50 ± SE, n=3",-7.37 ± 0.03 M
same,inhibition of conventional PKCγ,[2],inhibited
same,activity against atypical PKCζ,[3],almost no activity
NC(CNC(=O)C1(c2ccc(F)cc2Cl)CCCC1)[C@H]1CC[C@H](C(=O)Nc2ccncc2)CC1 (stereo partly drawn) [Compound 4],Log IC50,[1]; log of molar IC50,-6.917
same,IC50,[1]; read-out: IC50,121 nM
NC(C(=O)NCc1ccc(F)cc1)[C@H]1CC[C@H](C(=O)Nc2ccncc2)CC1 (stereo partly drawn) [Compound 12],Log IC50,[1]; log of molar IC50,-5.625
same,IC50,[1]; read-out: IC50,2370 nM
